# In article PMC9030254, “Target Hopping from Protein Kinases to PXR: Identification of Small-Molecule Protein Kinase Inhibitors as Selective Modulators of Pregnane X Receptor from TüKIC Library” (Cells, 2022):
# How the values were obtained:
# Test in all cases: Kinase profiling
# Assay type in all cases: biochemical
# ACVR1B = target: T1, ACVR1B (Homo sapiens, UniProt P36896)
# T1 construct: purchased ProQinase (Freiburg, Germany)
# T1 sequence (P36896 24-505): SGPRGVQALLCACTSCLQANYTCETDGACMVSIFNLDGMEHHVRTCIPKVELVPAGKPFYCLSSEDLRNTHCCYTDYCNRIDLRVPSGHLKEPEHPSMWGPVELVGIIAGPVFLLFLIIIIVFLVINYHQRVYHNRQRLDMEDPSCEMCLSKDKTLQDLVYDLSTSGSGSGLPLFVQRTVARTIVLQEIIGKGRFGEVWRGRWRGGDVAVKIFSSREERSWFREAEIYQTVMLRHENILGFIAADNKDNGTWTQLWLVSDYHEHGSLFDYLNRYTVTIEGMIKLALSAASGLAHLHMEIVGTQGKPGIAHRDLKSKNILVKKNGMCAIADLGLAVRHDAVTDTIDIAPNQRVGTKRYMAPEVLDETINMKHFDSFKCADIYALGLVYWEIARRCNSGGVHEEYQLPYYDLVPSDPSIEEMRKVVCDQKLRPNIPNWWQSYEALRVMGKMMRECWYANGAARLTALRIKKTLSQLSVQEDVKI
# Description: (§1) The analysis was performed by ProQinase (Freiburg, Germany).
# BLK = target: T2, BLK (Homo sapiens, UniProt P51451)
# T2 construct: purchased ProQinase (Freiburg, Germany)
# T2 sequence (P51451 whole entry): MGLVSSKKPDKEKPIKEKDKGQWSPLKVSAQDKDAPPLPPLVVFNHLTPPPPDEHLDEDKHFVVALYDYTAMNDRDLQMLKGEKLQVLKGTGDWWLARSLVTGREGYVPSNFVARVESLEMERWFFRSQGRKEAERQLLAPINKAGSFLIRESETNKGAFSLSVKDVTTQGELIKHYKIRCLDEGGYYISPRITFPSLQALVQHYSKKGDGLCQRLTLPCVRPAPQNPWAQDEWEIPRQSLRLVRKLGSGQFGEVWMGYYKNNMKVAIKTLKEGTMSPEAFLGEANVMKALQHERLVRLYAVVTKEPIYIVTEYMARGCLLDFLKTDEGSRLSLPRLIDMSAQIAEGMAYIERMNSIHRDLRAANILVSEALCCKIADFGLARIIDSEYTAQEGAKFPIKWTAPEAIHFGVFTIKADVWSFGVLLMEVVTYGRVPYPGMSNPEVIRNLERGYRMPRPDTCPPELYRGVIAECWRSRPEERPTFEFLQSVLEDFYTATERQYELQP
# Description: as §1
# CDK2/CycE1 = target: T3, CDK2/CycE1 (Homo sapiens, UniProt P24941)
# T3 construct: purchased ProQinase (Freiburg, Germany)
# Description: as §1
# CHK1 = target: T4, CHK1 (Homo sapiens, UniProt O14757)
# T4 construct: purchased ProQinase (Freiburg, Germany)
# T4 sequence (O14757 1-476): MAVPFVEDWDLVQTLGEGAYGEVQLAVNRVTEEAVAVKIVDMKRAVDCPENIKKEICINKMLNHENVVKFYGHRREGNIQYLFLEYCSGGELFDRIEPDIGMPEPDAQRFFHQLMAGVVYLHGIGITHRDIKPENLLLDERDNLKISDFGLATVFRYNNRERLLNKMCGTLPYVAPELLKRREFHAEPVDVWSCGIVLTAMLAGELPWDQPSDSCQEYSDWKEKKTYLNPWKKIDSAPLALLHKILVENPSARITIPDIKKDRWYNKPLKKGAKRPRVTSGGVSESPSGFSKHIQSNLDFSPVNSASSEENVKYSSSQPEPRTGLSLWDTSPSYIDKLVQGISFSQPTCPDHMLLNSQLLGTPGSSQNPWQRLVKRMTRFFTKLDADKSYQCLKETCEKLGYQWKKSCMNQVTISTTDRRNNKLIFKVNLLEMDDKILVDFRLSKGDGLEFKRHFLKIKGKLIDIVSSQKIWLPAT
# Description: as §1
# DNAPK = target: T5, DNAPK (Homo sapiens, UniProt P78527)
# T5 construct: purchased ProQinase (Freiburg, Germany)
# Description: as §1
# JNK3 = target: T6, JNK3 (Homo sapiens, UniProt P53779)
# T6 construct: purchased ProQinase (Freiburg, Germany)
# T6 sequence (P53779 whole entry): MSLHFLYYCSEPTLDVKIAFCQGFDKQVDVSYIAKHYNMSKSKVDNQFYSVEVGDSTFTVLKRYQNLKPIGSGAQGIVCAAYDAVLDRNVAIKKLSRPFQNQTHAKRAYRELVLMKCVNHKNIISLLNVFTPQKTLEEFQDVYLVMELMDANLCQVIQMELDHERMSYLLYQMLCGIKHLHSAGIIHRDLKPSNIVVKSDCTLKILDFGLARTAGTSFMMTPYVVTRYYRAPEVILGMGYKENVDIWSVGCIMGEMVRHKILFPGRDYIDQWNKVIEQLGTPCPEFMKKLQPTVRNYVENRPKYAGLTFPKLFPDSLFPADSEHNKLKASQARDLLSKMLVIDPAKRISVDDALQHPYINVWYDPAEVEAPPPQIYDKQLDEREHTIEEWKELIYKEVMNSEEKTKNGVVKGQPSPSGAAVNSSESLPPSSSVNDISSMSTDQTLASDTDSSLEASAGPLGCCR
# Description: as §1
# MAP3K10 = target: T7, MAP3K10 (Homo sapiens, UniProt Q02779)
# T7 construct: purchased ProQinase (Freiburg, Germany)
# T7 sequence (Q02779 whole entry): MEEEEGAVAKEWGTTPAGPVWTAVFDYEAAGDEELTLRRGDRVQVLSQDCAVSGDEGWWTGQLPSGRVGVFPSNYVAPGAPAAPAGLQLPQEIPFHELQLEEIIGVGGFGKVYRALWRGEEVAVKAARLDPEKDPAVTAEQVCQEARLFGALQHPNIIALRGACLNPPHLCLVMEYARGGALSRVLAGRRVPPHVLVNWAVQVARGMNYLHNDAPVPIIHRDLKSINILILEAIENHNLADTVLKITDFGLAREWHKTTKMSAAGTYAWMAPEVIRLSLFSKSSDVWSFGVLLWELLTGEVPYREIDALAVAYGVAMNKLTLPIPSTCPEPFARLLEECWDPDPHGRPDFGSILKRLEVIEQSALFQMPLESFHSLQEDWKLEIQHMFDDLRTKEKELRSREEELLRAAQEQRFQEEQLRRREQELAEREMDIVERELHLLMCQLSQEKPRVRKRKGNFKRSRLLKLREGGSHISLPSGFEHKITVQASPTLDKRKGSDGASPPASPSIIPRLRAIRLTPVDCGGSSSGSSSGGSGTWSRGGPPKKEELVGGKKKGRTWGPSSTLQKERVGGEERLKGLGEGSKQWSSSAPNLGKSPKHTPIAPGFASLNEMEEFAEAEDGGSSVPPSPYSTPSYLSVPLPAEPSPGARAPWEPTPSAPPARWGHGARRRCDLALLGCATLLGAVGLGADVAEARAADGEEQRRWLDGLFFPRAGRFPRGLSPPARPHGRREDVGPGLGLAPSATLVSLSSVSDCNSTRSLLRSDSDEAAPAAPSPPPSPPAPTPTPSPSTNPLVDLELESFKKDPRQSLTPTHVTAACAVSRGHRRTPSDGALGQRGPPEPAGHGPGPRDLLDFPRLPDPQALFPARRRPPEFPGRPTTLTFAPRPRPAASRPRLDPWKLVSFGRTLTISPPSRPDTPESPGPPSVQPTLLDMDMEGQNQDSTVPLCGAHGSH
# Description: as §1
# NEK3 = target: T8, NEK3 (Homo sapiens, UniProt P51956)
# T8 construct: purchased ProQinase (Freiburg, Germany)
# T8 sequence (P51956 1-506): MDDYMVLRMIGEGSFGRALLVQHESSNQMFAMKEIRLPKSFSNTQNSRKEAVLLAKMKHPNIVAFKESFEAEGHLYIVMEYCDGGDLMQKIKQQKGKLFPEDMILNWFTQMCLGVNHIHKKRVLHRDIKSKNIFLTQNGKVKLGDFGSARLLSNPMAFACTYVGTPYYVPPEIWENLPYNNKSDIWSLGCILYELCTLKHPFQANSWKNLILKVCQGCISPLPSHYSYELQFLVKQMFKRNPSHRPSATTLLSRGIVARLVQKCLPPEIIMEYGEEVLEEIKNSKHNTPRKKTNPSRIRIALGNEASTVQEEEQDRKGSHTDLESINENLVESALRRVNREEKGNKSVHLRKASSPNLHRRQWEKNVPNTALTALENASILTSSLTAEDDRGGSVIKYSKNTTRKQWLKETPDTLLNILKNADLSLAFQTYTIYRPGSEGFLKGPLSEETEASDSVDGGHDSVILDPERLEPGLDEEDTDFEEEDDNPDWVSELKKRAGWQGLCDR
# Description: as §1
# PAK7 = target: T9, PAK7 (Homo sapiens, UniProt Q9P286)
# T9 construct: purchased ProQinase (Freiburg, Germany)
# T9 sequence (Q9P286 whole entry): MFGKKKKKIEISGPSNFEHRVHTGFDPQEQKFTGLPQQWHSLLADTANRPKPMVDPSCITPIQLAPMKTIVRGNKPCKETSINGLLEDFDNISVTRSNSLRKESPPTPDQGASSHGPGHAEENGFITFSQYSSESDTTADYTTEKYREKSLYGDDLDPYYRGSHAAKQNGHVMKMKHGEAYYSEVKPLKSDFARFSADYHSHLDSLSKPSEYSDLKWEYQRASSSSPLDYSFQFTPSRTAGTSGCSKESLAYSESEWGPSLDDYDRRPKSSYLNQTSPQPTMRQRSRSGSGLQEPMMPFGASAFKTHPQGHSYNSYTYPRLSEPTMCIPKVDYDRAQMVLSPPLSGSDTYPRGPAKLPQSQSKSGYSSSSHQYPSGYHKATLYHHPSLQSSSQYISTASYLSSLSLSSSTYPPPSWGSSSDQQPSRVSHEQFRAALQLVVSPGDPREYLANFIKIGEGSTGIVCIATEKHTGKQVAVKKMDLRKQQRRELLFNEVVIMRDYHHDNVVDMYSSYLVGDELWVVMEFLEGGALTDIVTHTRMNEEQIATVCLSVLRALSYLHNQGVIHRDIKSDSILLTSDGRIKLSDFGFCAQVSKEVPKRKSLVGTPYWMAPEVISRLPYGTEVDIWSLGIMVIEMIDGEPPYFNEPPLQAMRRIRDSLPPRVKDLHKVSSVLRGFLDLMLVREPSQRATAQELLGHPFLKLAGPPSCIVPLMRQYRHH
# Description: as §1
# PHKG2 = target: T10, PHKG2 (Homo sapiens, UniProt P15735)
# T10 construct: purchased ProQinase (Freiburg, Germany)
# T10 sequence (P15735 1-406): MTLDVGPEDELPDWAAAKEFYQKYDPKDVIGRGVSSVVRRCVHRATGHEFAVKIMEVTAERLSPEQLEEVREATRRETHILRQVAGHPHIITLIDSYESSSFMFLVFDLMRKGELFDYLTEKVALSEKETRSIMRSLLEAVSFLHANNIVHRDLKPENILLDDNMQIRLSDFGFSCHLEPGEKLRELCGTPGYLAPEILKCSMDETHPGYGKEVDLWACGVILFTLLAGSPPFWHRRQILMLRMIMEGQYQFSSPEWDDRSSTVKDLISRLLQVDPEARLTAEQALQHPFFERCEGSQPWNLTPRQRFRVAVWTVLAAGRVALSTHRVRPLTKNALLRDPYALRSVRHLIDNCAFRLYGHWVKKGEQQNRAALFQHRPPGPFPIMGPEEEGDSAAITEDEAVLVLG
# Description: as §1
# PKCbeta1 = target: T11, PKCbeta1 (Homo sapiens, UniProt P05771)
# T11 construct: purchased ProQinase (Freiburg, Germany)
# T11 sequence (P05771 whole entry): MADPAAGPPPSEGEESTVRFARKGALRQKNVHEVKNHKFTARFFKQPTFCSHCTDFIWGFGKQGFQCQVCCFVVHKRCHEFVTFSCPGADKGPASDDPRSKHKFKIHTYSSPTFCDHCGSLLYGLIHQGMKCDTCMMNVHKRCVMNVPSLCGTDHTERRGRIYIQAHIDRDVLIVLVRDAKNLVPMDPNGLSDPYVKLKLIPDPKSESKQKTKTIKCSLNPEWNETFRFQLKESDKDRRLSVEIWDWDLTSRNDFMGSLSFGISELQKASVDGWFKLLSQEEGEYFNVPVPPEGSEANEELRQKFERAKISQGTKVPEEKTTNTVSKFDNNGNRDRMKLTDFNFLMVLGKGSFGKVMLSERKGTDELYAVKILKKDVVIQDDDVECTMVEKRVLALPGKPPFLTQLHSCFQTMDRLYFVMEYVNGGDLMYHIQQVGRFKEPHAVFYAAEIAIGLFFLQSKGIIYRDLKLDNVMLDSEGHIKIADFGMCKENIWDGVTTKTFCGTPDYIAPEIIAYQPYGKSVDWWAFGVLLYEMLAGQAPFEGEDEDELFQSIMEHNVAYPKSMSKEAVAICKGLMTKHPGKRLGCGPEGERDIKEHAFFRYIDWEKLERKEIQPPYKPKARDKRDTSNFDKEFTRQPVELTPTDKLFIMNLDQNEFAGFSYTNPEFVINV
# Description: as §1
# PLK3 = target: T12, PLK3 (Homo sapiens, UniProt Q9H4B4)
# T12 construct: purchased ProQinase (Freiburg, Germany)
# T12 sequence (Q9H4B4 whole entry): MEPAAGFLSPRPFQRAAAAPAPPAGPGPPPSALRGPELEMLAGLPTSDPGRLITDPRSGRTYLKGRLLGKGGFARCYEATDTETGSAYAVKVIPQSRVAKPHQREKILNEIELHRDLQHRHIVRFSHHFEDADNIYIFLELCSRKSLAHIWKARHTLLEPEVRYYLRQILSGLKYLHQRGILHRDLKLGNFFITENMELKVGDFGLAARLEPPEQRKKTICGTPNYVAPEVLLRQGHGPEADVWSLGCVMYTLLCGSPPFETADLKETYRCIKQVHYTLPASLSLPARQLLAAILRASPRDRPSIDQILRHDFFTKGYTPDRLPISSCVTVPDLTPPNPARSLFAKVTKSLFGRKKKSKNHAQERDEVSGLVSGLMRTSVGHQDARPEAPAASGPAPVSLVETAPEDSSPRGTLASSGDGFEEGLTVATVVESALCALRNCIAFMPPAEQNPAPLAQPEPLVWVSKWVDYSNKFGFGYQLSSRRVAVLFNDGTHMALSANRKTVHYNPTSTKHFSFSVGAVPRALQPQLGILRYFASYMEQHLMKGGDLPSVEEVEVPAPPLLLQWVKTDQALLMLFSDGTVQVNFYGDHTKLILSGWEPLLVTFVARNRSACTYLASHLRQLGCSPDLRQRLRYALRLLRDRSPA
# Description: as §1
structure (smiles),measurement,setting,value
O=C(Cc1ccccc1)Nc1ccc(F)c(Nc2ccc3c(c2)CCCCC3=O)c1 [Compound 100],Residual activity,ACVR1B; 1.0E-05 M,90 % of control
same,Residual activity,ACVR1B; 1.0E-06 M,92 % of control
same,Residual activity,BLK; 1.0E-05 M,110 % of control
same,Residual activity,BLK; 1.0E-06 M,118 % of control
same,Residual activity,CDK2/CycE1; 1.0E-05 M,118 % of control
same,Residual activity,CDK2/CycE1; 1.0E-06 M,86 % of control
same,Residual activity,CHK1; 1.0E-05 M,91 % of control
same,Residual activity,CHK1; 1.0E-06 M,91 % of control
same,Residual activity,DNAPK; 1.0E-05 M,97 % of control
same,Residual activity,DNAPK; 1.0E-06 M,95 % of control
same,Residual activity,JNK3; 1.0E-05 M,119 % of control
same,Residual activity,JNK3; 1.0E-06 M,96 % of control
same,Residual activity,MAP3K10; 1.0E-05 M,84 % of control
same,Residual activity,MAP3K10; 1.0E-06 M,106 % of control
same,Residual activity,NEK3; 1.0E-05 M,92 % of control
same,Residual activity,NEK3; 1.0E-06 M,104 % of control
same,Residual activity,PAK7; 1.0E-05 M,92 % of control
same,Residual activity,PAK7; 1.0E-06 M,99 % of control
same,Residual activity,PHKG2; 1.0E-05 M,93 % of control
same,Residual activity,PHKG2; 1.0E-06 M,96 % of control
same,Residual activity,PKCbeta1; 1.0E-05 M,92 % of control
same,Residual activity,PKCbeta1; 1.0E-06 M,91 % of control
same,Residual activity,PLK3; 1.0E-05 M,114 % of control
same,Residual activity,PLK3; 1.0E-06 M,115 % of control
O=C(Nc1ccc(F)c(Nc2ccc3c(c2)CCCCC3=O)c1)c1cccc(F)c1 [Compound 109],Residual activity,ACVR1B; 1.0E-05 M,87 % of control
same,Residual activity,ACVR1B; 1.0E-06 M,98 % of control
same,Residual activity,BLK; 1.0E-05 M,82 % of control
same,Residual activity,BLK; 1.0E-06 M,82 % of control
same,Residual activity,CDK2/CycE1; 1.0E-05 M,103 % of control
same,Residual activity,CDK2/CycE1; 1.0E-06 M,93 % of control
same,Residual activity,CHK1; 1.0E-05 M,90 % of control
same,Residual activity,CHK1; 1.0E-06 M,88 % of control
same,Residual activity,DNAPK; 1.0E-05 M,106 % of control
same,Residual activity,DNAPK; 1.0E-06 M,96 % of control
same,Residual activity,JNK3; 1.0E-05 M,92 % of control
same,Residual activity,JNK3; 1.0E-06 M,83 % of control
same,Residual activity,MAP3K10; 1.0E-05 M,91 % of control
same,Residual activity,MAP3K10; 1.0E-06 M,96 % of control
same,Residual activity,NEK3; 1.0E-05 M,97 % of control
same,Residual activity,NEK3; 1.0E-06 M,96 % of control
same,Residual activity,PAK7; 1.0E-05 M,93 % of control
same,Residual activity,PAK7; 1.0E-06 M,101 % of control
same,Residual activity,PHKG2; 1.0E-05 M,95 % of control
same,Residual activity,PHKG2; 1.0E-06 M,102 % of control
same,Residual activity,PKCbeta1; 1.0E-05 M,87 % of control
same,Residual activity,PKCbeta1; 1.0E-06 M,93 % of control
same,Residual activity,PLK3; 1.0E-05 M,104 % of control
same,Residual activity,PLK3; 1.0E-06 M,104 % of control
